In patent publication US6133311A, “Method for preventing or treating elevated blood lipid level-related diseases by administering natural phenolic compounds” (priority 1998, dated 2000):

How the values were obtained:
[1] = acute oral toxicity in mice; format: in vivo, ICR mice; details: for toxicity: oral, mouse, single dose 5,000 mg/kg
Experimental: Toxicity of Orally Administered tannin, gallic acid or ellagic acid
36 seven-week-old, specific pathogen-free ICR […] female mice each weighing about 25 to 29 g and 18 male mice each weighing about 34 to 38 9, were kept under an environment of 22±1° C., 55±5% relative humidity and 12L/12D photoperiod. Fodder (Cheiljedang Co., mouse and rat fodder) and water were sterilized and fed to the mice.
Tannin, gallic acid or ellagic acid purchased from Aldrich-Sigma Chemical Co. (St. Louis, Mo., U.S.A) was dissolved in 0.5% Tween 80 to a concentration of 500 mg/ml, and the solution was orally administered to the mice in an amount of 0.2 ml per 20 g of mouse body weight. […] Further, on the 10th day, the mice were sacrificed and the internal organs were visually examined.

[2] = chemical analysis of blood of rabbits fed a high-cholesterol diet; format: in vivo, New Zealand White rabbits; details: for TG (triglyceride): Control 56 ± 38; for TC (total cholesterol): Control 1143 ± 260
Experimental: Effect of Tannin, Gallic acid or Ellagic acid in an Animal
(Step 1) Administration of tannin, gallic acid or ellagic acid to rabbits
(§1) 30 three-month-old male New Zealand White rabbits (Yeonam Horticulture and Animal Husbandry College, Korea), each weighing about 2.5 to 2.6 kg, were raised under a condition of temperature 20+2° C., relative humidity 55±5%, and photoperiod 12L/12D. The rabbits were divided into 5 groups and 5 groups of rabbits were fed with 5 different diets, i.e., RC4 diet (Oriental Yeast Co., Japan) containing 1% cholesterol (Control group, 1); 1% cholesterol plus 1 mg/kg Lovastatin® (Merck, U.S.A.) (Lovastatin® group, 2); 1% cholesterol plus 0.1% tannin (3); 1% cholesterol plus 0.1% gallic acid (4); and 1% cholesterol plus 0.1% ellagic acid (5), respectively. RC4 diet comprises 7.6% moisture, 22.8% crude protein, 2.8% crude fat, 8.8% crude ash, 14.4% crude cellulose and 43.6% soluble nitrogen-free substances. Tannin, gallic acid and ellagic acid were purchased from Sigma Chemical Co. (St. Louis, Mo.).
(§2) The rabbits were fed for 6 weeks while being allowed free access to the diets and water.
(Step 2) Chemical Analysis of Blood
After six weeks, the rabbits were anesthetized with an intramuscular injection of ketamine (50 mg/kg) in the femoral region and sacrificed. A blood sample was taken from the heart of each rabbit, allowed to stand for 2 hours and centrifuged at 3,000 rpm for 15 minutes and the supernatant serum was separated and stored in a freezer before use.
The chemical analysis of blood was carried out by employing a blood chemical analyzer (CIBA Corning 550 Express, USA) to determine the changes in GOT, GPT, γGTP, total cholesterol, HDL-cholesterol and triglyceride levels.

[3] = tested on: main artery (arterial endothelium); test: analysis for fatty streak in the main artery of rabbits; format: in vivo, New Zealand White rabbits; details: for Fatty streak (proportion of stained region to total arterial area): 1% cholesterol diet plus 0.1% compound (Lovastatin 1 mg/kg), Control 35 ± 14; for Fatty streak (proportion of stained region to total arterial area) / plaque formation in the endothelium of the main artery: 6 weeks; for deposition of macrophages on the arterial endothelium: blood cholesterol level high
Experimental: as §1, §2
(Step 3) Analysis for fatty streak in the main artery
The chest of each of the rabbits sacrificed in Step 2 was incised. The downward portion of the main artery from the site 1 cm above the aortic valve was cut out in a length of about 5 cm and the fat surrounding the main artery was removed. The main artery was incised in the middle along the longitudinal axis and pinned to a dish. The moist artery was photographed and, then, the staining of fatty streaks was carried out in accordance with the method of Esper, E., et al. (J. Lab. Clin. Med., 121, 103-110 (1993)) as follows.
A part of the incised main artery was washed three times with anhydrous propylene glycol for 2 min. and stained for 30 min. with a saturated solution of Oil Red O (ORO, Sigma Co.) dissolved in propylene glycol. Thereafter, the artery was washed twice with 85% propylene glycol for 3 min. to remove remaining staining solution and, then washed with physiological saline. The artery was photographed and the photograph was traced. The area of stained region (fatty streak region) was determined with an image analyzer (LEICA, Q-600, Germany) and its proportion (%) to the total arterial area was calculated.
FIGS. 1A, 1B and 1C show the arteries of the rabbits administered with 1% cholesterol (Control group); 1% cholesterol plus 1 mg/kg Lovastatin® (Lovastatin® group); 1% cholesterol plus 0.1% ellagic acid, respectively.

[4] = tested on: liver cells around the central vein; test: fatty liver: proportion of abnormal fat-containing cells in the liver of rabbits; format: in vivo, New Zealand White rabbits; details: 6 weeks; for A: Proportion of abnormal fat-containing liver cells (grade): 1% cholesterol diet plus 0.1% compound (Lovastatin 1 mg/kg), mean of grades 1+ to 4+, Control 3.2 ± 0.3; for inhibition of the formation of fatty liver: 1% cholesterol diet
Experimental: as §1, §2
(Step 5) Prevention of Hepatic Diseases

[5] = rabbits, 1% cholesterol diet plus 0.1% compound (Lovastatin 1 mg/kg), 6 weeks

| Compound | toxicity [1] | effect on the liver function (adverse) ([2]; rabbit, in vivo) | TG (triglyceride) [2, 5] [mg/dL] | TC (total cholesterol) [2, 5] [mg/dL] | lipid metabolism and liver function ([2]; rabbits, 6 weeks) | Fatty streak (proportion of stained region to total arterial area) [3] [%] | plaque formation in the endothelium of the main artery [3] | deposition of macrophages on the arterial endothelium [3] | A: Proportion of abnormal fat-containing liver cells (grade) [4] | inhibition of the formation of fatty liver [4] | weight loss ([1]; oral 5,000 mg/kg, 10 day test period) | pathological abnormality at autopsy ([1]; oral 5,000 mg/kg, day 10) | survival ([1]; oral 5,000 mg/kg, day 10) | effect on the liver function (adverse) ([2]; general statement) | γGTP ([2]; rabbits, 1% cholesterol diet plus 0.1% compound (Lovastatin 1 mg/kg), 6 weeks, Control 4.2 ± 0.9) [IU/l] | GPT ([2]; rabbits, 1% cholesterol diet plus 0.1% compound (Lovastatin 1 mg/kg), 6 weeks, Control 65 ± 9) [IU/l] | GOT ([2]; rabbits, 1% cholesterol diet plus 0.1% compound (Lovastatin 1 mg/kg), 6 weeks, Control 77 ± 8) [IU/l] |
| --- | --- | --- | --- | --- | --- | --- | --- | --- | --- | --- | --- | --- | --- | --- | --- | --- | --- |
| tannin | no toxicity | do not adversely affect on the liver function | 25 ± 10 | 1120 ± 211 | can improve | 13 ± 2 | inhibit | strongly inhibit | 2.7 ± 0.4 | significantly inhibit the formation of fatty liver | – | – | – | – | – | – | – |
| O=C(O)c1cc(O)c(O)c(O)c1 [Gallic acid, gallic acid] | no toxicity | – | 27 ± 11 | 1150 ± 100 | can improve | 10 ± 2 | inhibit | strongly inhibit | 2.7 ± 0.4 | can significantly inhibit the formation of fatty liver | no weight loss | had not developed any pathological abnormality | All the mice were alive at day 10 | do not adversely affect on the liver function | 7.0 ± 2 | 20 ± 10 | 60 ± 9 |
